Results as given in PubChem BioAssay (NCI).
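Test compounds were applied to cells in 96-well plates for 48 hours at 5 doses. The concentration for full growth arrest is given as TGI.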

Tested on: P388 leukemia
Assay: NCI tumour cell line growth inhibition, 48 h

Q: `CCOC(=O)c1ccc(N[C@@H]2c3cc4c(cc3C(c3cc(OC)c(O)c(OC)c3)[C@H]3C(=O)OCC32)OCO4)cc1` (stereo partly specified) was tested. Which TGI did it give?
A: Its TGI is 0.0208 µM.
